Source: patent publication US10654837B2, “Sulphamoylaryl derivatives and use thereof as medicaments for the treatment of liver fibrosis” (Janssen Pharmaceutica NV, priority 2017, dated 2020)

The molecules below were run against T1, 5HTR2B (Homo sapiens, UniProt P41595) (assay: 5HTR2B antagonist activity, calcium mobilization assay in human Maverick/293 cells (serotonin as agonist)). Conditions: intracellular calcium, emission 525 nm, read-out: Ca assay IC50.
T1 construct: host or cells: human Maverick/293 cells
T1 sequence (P41595 whole entry): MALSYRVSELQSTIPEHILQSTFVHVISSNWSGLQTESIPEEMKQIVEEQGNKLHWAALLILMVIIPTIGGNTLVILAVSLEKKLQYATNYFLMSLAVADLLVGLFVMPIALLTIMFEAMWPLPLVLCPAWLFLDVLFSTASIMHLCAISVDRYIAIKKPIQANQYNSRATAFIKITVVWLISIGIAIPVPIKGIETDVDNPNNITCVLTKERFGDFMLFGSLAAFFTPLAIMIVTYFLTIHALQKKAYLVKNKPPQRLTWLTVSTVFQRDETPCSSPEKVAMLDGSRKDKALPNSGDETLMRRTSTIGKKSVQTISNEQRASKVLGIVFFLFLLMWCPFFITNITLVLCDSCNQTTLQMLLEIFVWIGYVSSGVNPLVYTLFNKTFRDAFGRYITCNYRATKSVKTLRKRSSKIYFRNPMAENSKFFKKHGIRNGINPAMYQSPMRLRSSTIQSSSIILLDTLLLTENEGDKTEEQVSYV
Type: cell-based
Method: The 5HTR2B antagonist activity was measured using human Maverick/293 cells in a calcium mobilization assay. The measurement starting with plating human Maverick/293 cells (log phase) onto 96-well black and incubate at 37° C. overnight, Followed by starving cells for 2 h by changing complete medium to DMEM without FBS, removing the medium from the 96-well plate. Loading staining calcium buffer into each well and incubated the plate at 37° C. for 50 min. After removal of staining calcium buffer, diluted antagonist were added into the well, incubate 15 to 30 minutes. Dispense serotonin as the 5HTR2B agonists into each well. Intracellular calcium concentration is recorded for 80 seconds by monitoring an emission at a wavelength of 525 nm with an excitation wavelength of 485 nm. Inhibition efficiency of the cell line was determined following the equation: % Inhibition=100%−(D−B)/(S−B)*100%. (S: The peak value in the presence of agonist serotonin; D: The peak value in the presence of different dilution compound or serotonin; B: The peak value in the presence of calcium HBSS buffer only). […] A dose response curve was fitted using nonlinear regression model with a sigmoidal dose response. The IC50 was automatically produced by GraphPad Prism 5.0.
For `COC[C@H](C)NS(=O)(=O)c1ccc(OC)c(C(=O)Nc2ccc(F)cc2)c1` (single isomer, unassigned) [Compound 40a, (S*)—N-(4-Fluorophenyl)-2-methoxy-5-(N-(1-methoxypropan-2-yl)sulfamoyl) benzamide], the IC50 was 1.7 nM.
Molecule `COC[C@@H](C)NS(=O)(=O)c1ccc(OC)c(C(=O)Nc2ccc(F)cc2)c1` (single isomer, unassigned) [Compound 40b, (R*)—N-(4-Fluorophenyl)-2-methoxy-5-(N-(1-methoxypropan-2-yl)sulfamoyl) benzamide] has an IC50 of 9.5 nM.
For `COc1ccc(S(=O)(=O)NCC(O)C(F)(F)F)cc1C(=O)Nc1ccc(F)cc1` (single isomer, unassigned) [Compound 44a, (S*)—N-(4-Fluorophenyl)-2-methoxy-5-(N-(3,3,3-trifluoro-2-hydroxypropyl)sulfamoyl)benzamide], the IC50 was 2.4 nM.
For `COc1ccc(S(=O)(=O)NCC(O)C(F)(F)F)cc1C(=O)Nc1ccc(F)cc1` (single isomer, unassigned) [Compound 44b, (R*)—N-(4-Fluorophenyl)-2-methoxy-5-(N-(3,3,3-trifluoro-2-hydroxypropyl)sulfamoyl)benzamide], the IC50 was 3.2 nM.
Work on `COc1ccc(S(=O)(=O)N[C@@H]2CC[C@H](O)C2)cc1C(=O)Nc1ccc(F)cc1` (single isomer, unassigned) [Compound 45a, N-(4-Fluorophenyl)-5-(N-((cis)-3-hydroxycyclopentyl)sulfamoyl)-2-methoxybenzamide] yielded an IC50 of 1.3 nM.
`COc1ccc(S(=O)(=O)N[C@H]2CCN(C)C2=O)cc1C(=O)Nc1ccccc1Cl` (single isomer, unassigned) [Compound 54a, (S*)—N-(2-Chlorophenyl)-2-methoxy-5-(1-methyl-2-oxopyrrolidin-3-yl) sulfamoyl)benzamide] was tested, and the IC50 was 1.1 nM.
`COc1ccc(S(=O)(=O)NC2CCN(C)C2=O)cc1C(=O)Nc1ccccc1Cl` (single isomer, unassigned) [Compound 54b, (R*)—N-(2-Chlorophenyl)-2-methoxy-5-(N-(1-methyl-2-oxopyrrolidin-3-yl)sulfamoyl)benzamide] gave an IC50 of 1.2 nM.
`COc1ccc(S(=O)(=O)N[C@@H](C)CC#N)cc1C(=O)Nc1ccccc1Cl` (single isomer, unassigned) [Compound 60a, (S*)—N-(2-Chlorophenyl)-5-(N-(1-cyanopropan-2-yl)sulfamoyl)-2-methoxy benzamide] showed an IC50 of 0.4 nM.
Molecule `COc1ccc(S(=O)(=O)N[C@H](C)CC#N)cc1C(=O)Nc1ccccc1Cl` (single isomer, unassigned) [Compound 60b, (R*)—N-(2-chlorophenyl)-5-(N-(1-cyanopropan-2-yl)sulfamoyl)-2-methoxy benzamide] has an IC50 of 0.4 nM.
`COc1ccc(NS(=O)(=O)[C@H]2CCOC2)cc1C(=O)Nc1ccc(F)c(C)c1` (single isomer, unassigned) [Compound 202a, (S*)N-4-fluoro-3-methylphenyl)-2-methoxy-5-(tetrahydrofuran-3-sulfonamido)benzamide] showed an IC50 of 1 nM.
`COc1ccc(NS(=O)(=O)[C@@H]2CCOC2)cc1C(=O)Nc1ccc(F)c(C)c1` (single isomer, unassigned) [Compound 202b, (R*)N-4-fluoro-3-methylphenyl)-2-methoxy-5-(tetrahydrofuran-3-sulfonamido)benzamide] gave an IC50 of 2.8 nM.
`COc1ccc(N(C)S(=O)(=O)C2CCOC2)cc1C(=O)Nc1ccc(F)c(C)c1` (single isomer, unassigned) [Compound 204a, (R*)—N-(4-Fluoro-3-methylphenyl)-2-methoxy-5-(N-methyltetrahydrofuran-3-sulfonamido)benzamide] showed an IC50 of 50 nM.
With `COc1ccc(N(C)S(=O)(=O)C2CCOC2)cc1C(=O)Nc1ccc(F)c(C)c1` (single isomer, unassigned) [Compound 204b, (S*)—N-(4-Fluoro-3-methylphenyl)-2-methoxy-5-(N-methyltetrahydrofuran-3-sulfonamido)benzamide] the IC50 was 56 nM.
Work on `COc1ccc(S(=O)(=O)NC2CC[C@H](O)C2)cc1C(=O)Nc1ccc(F)c(C)c1` (stereo in doubt) [Compound 15a, N-(4-Fluoro-3-methylphenyl)-5-(N-((cis)-3-hydroxycyclopentyl)sulfamoyl)-2-methoxybenzamide] yielded an IC50 of 2 nM.
In the case of `COc1ccc(S(=O)(=O)NC2CCCC[C@@H]2O)cc1C(=O)Nc1ccc(F)c(C)n1` (stereo in doubt) [Compound 28a, N-(5-Fluoro-6-methylpyridin-2-yl)-5-(N-((trans)-2-hydroxycyclohexyl)sulfamoyl)-2-methoxybenzamide], the IC50 is reported as 19 nM.
Work on `COc1ccc(S(=O)(=O)NC2CCCC[C@H]2O)cc1C(=O)Nc1ccc(F)c(C)n1` (stereo in doubt) [Compound 28b, N-(5-Fluoro-6-methylpyridin-2-yl)-5-(N-((trans)-2-hydroxycyclohexyl)sulfamoyl)-2-methoxybenzamide] yielded an IC50 of 119 nM.
For `COc1ccc(S(=O)(=O)NC2CC[C@H](O)C2)cc1C(=O)Nc1ccc(F)c(C(F)F)c1` (stereo in doubt) [Compound 33b, N-(3-(Difluoromethyl)-4-fluorophenyl)-5-(N-((cis)-3-hydroxycyclopentyl)sulfamoyl)-2-methoxybenzamide], the IC50 was 0.4 nM.
With `COc1ccc(S(=O)(=O)NC2COC[C@@H]2O)cc1C(=O)Nc1ccccc1Cl` (stereo in doubt) [Compound 56a, N-(2-Chlorophenyl)-5-(N-((cis)-4-hydroxytetrahydrofuran-3-yl)sulfamoyl)-2-methoxybenzamide] the IC50 was 0.1 nM.
With `COc1ccc(S(=O)(=O)NC2COC[C@H]2O)cc1C(=O)Nc1ccccc1Cl` (stereo in doubt) [Compound 56b, N-(2-Chlorophenyl)-5-(N-((cis)-4-hydroxytetrahydrofuran-3-yl)sulfamoyl)-2-methoxybenzamide] the IC50 was 0.2 nM.
Work on `COc1ccc(S(=O)(=O)NC2CC(F)(F)C2)cc1C(=O)Nc1ccc(F)c(C)c1` [Compound 1, 5-(N-(3,3-Difluorocyclobutyl)sulfamoyl)-N-(4-fluoro-3-methylphenyl)-2-methoxybenzamide] yielded an IC50 of 2.3 nM.
For `COc1ccc(S(=O)(=O)N[C@H]2CCOC2)cc1C(=O)Nc1ccc(F)c(C)n1` [Compound 2], the IC50 was 0.6 nM.
With `COc1ccc(S(=O)(=O)N[C@H]2CCOC2)cc1C(=O)Nc1cccc(F)c1Cl` [Compound 3, (S)—N-(2-Chloro-3-fluorophenyl)-2-methoxy-5-(N-(tetrahydrofuran-3-yl)sulfamoyl) benzamide] the IC50 was 1.7 nM.
`COc1ccc(S(=O)(=O)N[C@H]2CCOC2)cc1C(=O)Nc1ccc(F)c(C)c1` [Compound 4, (S)—N-(4-Fluoro-3-methylphenyl)-2-methoxy-5-(N-(tetrahydrofuran-3-yl)sulfamoyl)benzamide] was tested, and the IC50 was 0.7 nM.
Work on `COc1ccc(S(=O)(=O)NC2COC2)cc1C(=O)Nc1ccc(F)c(C)c1` [Compound 5, N-(4-Fluoro-3-methylphenyl)-2-methoxy-5-(N-(oxetan-3-yl)sulfamoyl) benzamide] yielded an IC50 of 4.2 nM.
Work on `COc1ccc(S(=O)(=O)N[C@H]2C[C@H](O)C2)cc1C(=O)Nc1ccc(F)c(C)c1` [Compound 6a, N-(4-Fluoro-3-methylphenyl)-5-(N-((trans)-3-hydroxycyclobutyl)sulfamoyl)-2-methoxybenzamide] yielded an IC50 of 18 nM.
In the case of `COc1ccc(S(=O)(=O)N[C@H]2C[C@@H](O)C2)cc1C(=O)Nc1ccc(F)c(C)c1` [Compound 6b, N-(4-Fluoro-3-methylphenyl)-5-(N-((cis)-3-hydroxycyclobutyl)sulfamoyl)-2-methoxybenzamide], the IC50 is reported as 1.9 nM.
For `COc1ccc(S(=O)(=O)NC2CC(C)C2)cc1C(=O)Nc1ccc(F)c(C)c1` (stereo not shown) [Compound 7, N-(4-Fluoro-3-methylphenyl)-2-methoxy-5-(N-(3-methylcyclobutyl)sulfamoyl) benzamide], the IC50 was 5.4 nM.
In the case of `COc1ccc(S(=O)(=O)N[C@H]2C[C@@H](C)C2)cc1C(=O)Nc1ccc(F)c(C)c1` [Compound 7a, N-(4-Fluoro-3-methylphenyl)-2-methoxy-5-(N-((cis)-3-methylcyclobutyl)sulfamoyl)benzamide], the IC50 is reported as 3.8 nM.
Work on `COc1ccc(S(=O)(=O)N[C@H]2C[C@H](C)C2)cc1C(=O)Nc1ccc(F)c(C)c1` [Compound 7b, N-(4-Fluoro-3-methylphenyl)-2-methoxy-5-(N-((trans)-3-methylcyclobutyl)sulfamoyl)benzamide] yielded an IC50 of 6.9 nM.
`COc1ccc(S(=O)(=O)NC(C)C)cc1C(=O)Nc1ccc(F)c(C)c1` [Compound 8, N-(4-Fluoro-3-methylphenyl)-5-(N-isopropylsulfamoyl)-2-methoxybenzamide] was tested, and the IC50 was 2.5 nM.
`COc1ccc(S(=O)(=O)NC2(C)COC2)cc1C(=O)Nc1ccc(F)c(C)c1` [Compound 9, N-(4-Fluoro-3-methylphenyl)-2-methoxy-5-(N-(3-methyloxetan-3-yl)sulfamoyl) benzamide] showed an IC50 of 2.2 nM.
Work on `COc1ccc(S(=O)(=O)NC(C)CO)cc1C(=O)Nc1ccc(F)c(C)c1` (stereo not shown) [Compound 10, N-(4-Fluoro-3-methylphenyl)-5-(N-(1-hydroxypropan-2-yl)sulfamoyl)-2-methoxybenzamide] yielded an IC50 of 4.5 nM.
`COc1ccc(S(=O)(=O)N[C@@H](C)CO)cc1C(=O)Nc1ccc(F)c(C)c1` [Compound 10a, (S)—N-(4-Fluoro-3-methylphenyl)-5-(N-(1-hydroxypropan-2-yl)sulfamoyl)-2-methoxybenzamide] gave an IC50 of 4.5 nM.
`COc1ccc(S(=O)(=O)N[C@H](C)CO)cc1C(=O)Nc1ccc(F)c(C)c1` [Compound 10b, (R)—N-(4-Fluoro-3-methylphenyl)-5-(N-(1-hydroxypropan-2-yl)sulfamoyl)-2-methoxybenzamide] was tested, and the IC50 was 12 nM.
